For data set [1], the system named is estrogen receptors. The following applies: ability to displace [3H]estradiol from receptor sites; cited from earlier work.
The target in data set [2] is T1, estrogen receptor (calf uterine cytosol) (Bos taurus, UniProt P49884).
T1 construct: Fresh calf uteri obtained from a slaughterhouse; from tissue; host or cells: calf uterus, 150,000 x g cytosol from lyophilized powder
T1 sequence (P49884 1-596): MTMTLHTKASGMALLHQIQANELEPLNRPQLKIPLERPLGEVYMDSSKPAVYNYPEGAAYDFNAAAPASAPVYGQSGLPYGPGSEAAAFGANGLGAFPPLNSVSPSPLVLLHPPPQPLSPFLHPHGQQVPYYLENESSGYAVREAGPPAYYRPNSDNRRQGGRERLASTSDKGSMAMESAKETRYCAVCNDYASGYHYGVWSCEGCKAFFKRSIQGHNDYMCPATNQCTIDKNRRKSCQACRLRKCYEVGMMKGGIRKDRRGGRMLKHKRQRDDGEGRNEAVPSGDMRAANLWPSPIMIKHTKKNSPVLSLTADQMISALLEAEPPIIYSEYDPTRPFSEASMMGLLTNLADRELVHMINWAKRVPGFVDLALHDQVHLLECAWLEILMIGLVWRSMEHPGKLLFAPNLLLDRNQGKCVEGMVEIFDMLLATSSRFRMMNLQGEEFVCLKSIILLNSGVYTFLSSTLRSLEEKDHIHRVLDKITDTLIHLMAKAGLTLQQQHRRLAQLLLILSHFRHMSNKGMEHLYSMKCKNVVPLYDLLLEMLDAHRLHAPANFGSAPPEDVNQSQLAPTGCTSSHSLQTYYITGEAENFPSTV
The data set can be described thus: Competition for the estrogen receptor in calf uterine cytosol. Format: binding. The following applies: for activity at 0.0005 µM: competitor 0.5 nM. The method, then: Several compounds, at the two indicated concentrations, were allowed to compete with both labeled steroids for sites in calf uterine cytosol. Incubations were overnight at 4° C., and bound and free steroids were separated with dextran-coated charcoal.

For data set [3], the system named is estrogen-dependent human breast tumor cell line (MCF-7). The data set can be described thus: Induction of growth of MCF-7 cells in vitro. Format: cell-based. An excerpt: This difference in potency, can be explained either by differences in the peripheral metabolism of the two compounds or by differences in events that occur after binding to the cytosolic receptor has taken place. At this time we believe the former explanation to be correct because the two estrogens are equipotent in vitro in inducing growth of an estrogen-dependent human breast tumor cell line (MCF-7).

The test system of data set [4] is antisera against bovine serum albumin complexes with E2-17-hemisuccinate, E2-6-carboxymethyloxime and E2-3-carboxymethyl ether. In words: Radioimmunoassay with antisteroid antisera. Format: binding, rabbits. On the procedure: Antisteroid antisera were produced in rabbits immunized with steroid-bovineserum albumin conjugates.
Varying amounts of E2 dissolved in methanol were added to test tubes and evaporated to dryness. The residues were dissolved in 100 μl of antiserum that had been diluted in 0.1M phosphate, pH 7.0/0.015M sodium azide/0.15M NaCl/0.1% gelatin (PBS buffer). […] Upon completion of the incubation, 100 μl of 0.5% gelatin in PBS buffer was added, followed by 1 ml of PBS buffer containing 2.5 mg of dextran-coated charcoal. The mixture was agitated in a vortex mixer and, after 10 minutes at 4° C., it was centrifuged at 5000×g for 10 minutes at 4° C. Aliquots (0.9 ml) were assayed for radioactivity.
The data also indicate that very sensitive radioimmunoassays could be developed with all three antisera.

For data set [5], the target named is T2, calf uterine estrogen receptor (Bos taurus, UniProt P49884).
T2 construct: Fresh calf uteri obtained from a slaughterhouse; from tissue; host or cells: calf uterus, 150,000 x g cytosol from lyophilized powder
T2 sequence (P49884 1-596): T1 sequence (P49884 1-596)
In words: Saturation and Scatchard analysis of the estrogen receptor from calf uterus. Format: binding. The following applies: Scatchard analysis, calf uterine cytosol. The method, then:
Fresh calf uteri obtained from a slaughterhouse were brought to the laboratory on ice, immediately trimmed of fat, and cut into small pieces; the pieces were frozen in liquid nitrogen and pulverized. The pulverized frozen tissue was lyophilized, and the desiccated powder was stored under vacuum in sealed vials at -80° C. The uterine powders were usually used within 1 month of pulverization. When needed, the powders were suspended in 0.1M Tris-HCl, pH 7.4/2.5 mM EDTA/5 mM dithiotreithol (TED buffer) at 2.5 mg/ml and homogenized at 0° C. in a Polytron homogenizer with two or three pulses at 15 seconds each. The homogenate was then centrifuged at 150,000×g for 60 minutes and the resulting supernatant (cytosol), containing approximately 1 mg of protein per ml, was used for binding studies on the estrogen receptor.
After the solvent was removed under a stream of N2, 250 μl of cytosol was added and the samples were incubated at 0°-2° C. overnight. The following morning, 250 μl of a 0.5% suspension of dextran-coated charcoal in TED buffer was added to the tubes which then were mixed and centrifuged at 5000×g for 10 minutes. The supernatant was assayed to determine bound radioactivity.
A saturation analysis of the estrogen receptor from calf uterus was conducted. […] Nonspecific binding, specific binding and total binding were determined in parallel incubations containing 0.7 μM DES.
A Scatchard analysis of the estrogen receptor from calf uterus was also conducted.

For data set [6], the system named is 21-day-old female rats (uteri). In words: Estrogen bioassay, uterine weight in 21-day-old female rats. The following applies: daily s.c. injections for 3 days, uterine weight on fourth day. It is filed as in vivo. On the procedure:
Estrogenic potency was assayed in 21-day-old female rats. […] On the fourth day, the uteri were removed, trimmed, blotted, and weighed.

Data set [7] in a line: External localization of tracer in an ovariectomized squirrel monkey. It is filed as in vivo, squirrel monkey (Saimari Sciureus). The method, then:
The tracer ^131 I-E2 was synthesized as described in Example 6 with the exception that Na ^131 I was used for the exchange. The subject, a squirrel monkey (Saimari Sciureus), weighing 1.5 kilograms, was ovariectomized 2 weeks before the start of the experiment and an estradiol containing Silastic implant was placed subcutaneously in […] back. The implant was removed 24 hours before the intravenous injection of 200 μCi of the tracer dissolved in saline. […] Within 1 to 2 hours radioactivity could be detected in the suprapubic region, but when the bladder was aspirated and washed, 3.8 μCi of radioactivity was found in the urine.

The mark [8] stands for this setting: read-out: B/B0 × 10^2, tracer ^3 H-E2 (0.74 nM).
Where [9] appears, read: read-out: B/B0 × 10^2, tracer ^3 H-E2 (0.74 nM), competitor 5.0 nM.
The mark [10] stands for this setting: read-out: B/B0 × 10^2, tracer ^125 I-E2 (0.22 nM).
Where [11] appears, read: read-out: B/B0 × 10^2, tracer ^125 I-E2 (0.22 nM), competitor 5 nM.

Results on 9 molecules are retold here after patent US4465676A, “16α Halogen substituted 3,17β-dihydroxy steroidal estrogens” (priority 1980, dated 1984).

Structures are written as SMILES. Like-named read-outs stand apart in the source and are kept apart here.

As to `C[C@]12CC[C@@H]3c4ccc(O)cc4C(I)=C[C@H]3[C@@H]1CC[C@@H]2O` [6-iodoestra-1,3,5(10), 6-tetraene-3,17β-diol], the relative binding affinity in data set [1] is 0.49.

On to `C[C@]12CC[C@@H]3c4ccc(O)cc4CC[C@H]3[C@@H]1C[C@H](I)[C@@H]2O` [16β-iodoestra-1,3,5(10)-triene-3-17β-diol], for which the relative binding affinity in data set [1] is given as 0.57.

`C[C@]12C[C@H](O)[C@H]3[C@@H](CCC4=CC(=O)CC[C@@]43C)[C@@H]1CC[C@@H]2C(=O)CO` [Corticosterone]: the activity at 0.0005 µM is 103% in data set [2] (tracer ^3 H-E2 (0.74 nM), read-out: B/B0 × 10^2) and 100% in data set [2] (tracer ^125 I-E2 (0.22 nM), read-out: B/B0 × 10^2). Besides, the activity at 0.005 µM amounted to 97% in data set [2] (tracer ^3 H-E2 (0.74 nM), competitor 5.0 nM, read-out: B/B0 × 10^2) and 93% in data set [2] (tracer ^125 I-E2 (0.22 nM), competitor 5 nM, read-out: B/B0 × 10^2).

`C[C@]12CC[C@H](O)CC1=CC[C@@H]1[C@@H]2CC[C@]2(C)C(=O)CC[C@@H]12` [Dehydroisoandrosterone]: the results for the activity at 0.0005 µM in data set [2] (setting [8]) and in data set [2] (setting [10]) were 98% and 104%, respectively. The activity at 0.005 µM was 108% in data set [2] (setting [9]) and 107% in data set [2] (setting [11]).

For the molecule `C[C@]12CC[C@@H]3c4ccc(O)cc4CC[C@H]3[C@@H]1CC[C@@H]2O` [E2, estra-1,3,5(10)-triene-3,17β-diol, reference compound], in data set [3], the “inducing growth of MCF-7” value was “equipotent”. The “tracer displaced from the antibody” value in data set [4] (anti-E2-6-carboxymethyloxime-albumin, 1 pg of E2) is approximately 50%.

Consider `C[C@]12CC[C@@H]3c4ccc(O)cc4CC[C@H]3[C@@H]1C[C@@H](I)[C@@H]2O` [I-E2, 16α-iodoestra-1,3,5,(10)-triene-3,17β-diol], for which the “inducing growth of MCF-7” value in data set [3] is given as “equipotent”. The binding capacity in data set [5] is reported as 411 fmol/mg of protein. In addition, the Kd in data set [5] (read-out: Ka (association constant) (converted)) was 0.141 nM. For the same molecule, in data set [6], the “estrogenic potency in vivo” value was “estrogenic in vivo, albeit not as potent as E2 itself”. The activity at 0.0005 µM was found to be 69% in data set [2] (setting [8]) and 35% in data set [2] (setting [10]). Moreover, the activity at 0.005 µM in data set [2] (setting [9]) was determined as 12%; in data set [2] (setting [11]), 2%. Moreover, the “competing for the estrogen receptor (in words)” value in data set [2] (regardless of which radioactive ligand was used) is “about equipotent”.

`CC(=O)[C@H]1CC[C@H]2[C@@H]3CCC4=CC(=O)CC[C@]4(C)[C@H]3CC[C@]12C` [Progesterone]: the activity at 0.0005 µM in data set [2] (setting [8]) stood at 97%; in data set [2] (setting [10]) it was 98%. The activity at 0.005 µM in data set [2] (setting [9]) and in data set [2] (setting [11]) was 102% in each case.

With `[3H]C1c2cc(O)ccc2[C@H]2CC[C@]3(C)[C@@H](O)CC[C@H]3[C@@H]2C1[3H]` (stereo partly drawn) [^3 H-E2], the “binding of tracer to antisera” value in data set [4] (three antisera, various dilutions) was “bound to all three antisera”.

On to `C[C@]12CC[C@@H]3c4ccc(O)cc4CC[C@H]3[C@@H]1C[C@@H]([131I])[C@@H]2O` [^131 I-E2], for which the “imaging of the uterus” value in data set [7] (Anger Camera) is recorded as “uterus was then imaged”. Also, in data set [7] (bladder aspirated and washed, i.v. 200 μCi), the “radioactivity found in the urine” value worked out at 3.8 μCi. In addition, in data set [7] (i.v. 200 μCi), the “time until radioactivity detected in the suprapubic region” value lay in the range of 1 to 2 h. Also, in data set [7] (i.v. 200 μCi, pin-hole collimator scan), the “uptake of the tracer in the liver” value is recorded as “could be seen immediately”.
